The record followed here is article PMC8308585, “Design and Synthesis of Novel Thiazolo[5,4-d]pyrimidine Derivatives with High Affinity for Both the Adenosine A1 and A2A Receptors, and Efficacy in Animal Models of Depression” (Pharmaceuticals, 2021).

One test addresses T1, hA3 AR (Homo sapiens, UniProt P0DMS8).
T1 construct: expressed in transfected cells; host or cells: CHO cells
T1 sequence (P0DMS8 1-318): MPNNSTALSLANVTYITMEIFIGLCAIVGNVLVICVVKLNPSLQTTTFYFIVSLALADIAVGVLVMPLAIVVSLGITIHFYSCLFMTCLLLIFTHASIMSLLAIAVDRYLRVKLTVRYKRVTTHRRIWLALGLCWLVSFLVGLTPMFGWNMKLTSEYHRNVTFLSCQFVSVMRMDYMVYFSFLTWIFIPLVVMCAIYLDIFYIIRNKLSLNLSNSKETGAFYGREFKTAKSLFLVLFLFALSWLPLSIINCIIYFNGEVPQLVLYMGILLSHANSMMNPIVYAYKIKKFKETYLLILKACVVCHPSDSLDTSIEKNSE
The test can be described thus: Radioligand binding, displacement of [3H]-HEMADO at hA3 AR in CHO cells. The following applies: displacement of specific [3H]-HEMADO binding, mean ± SEM. For orientation: Displacement assays read how much labelled ligand stays bound in the presence of the test substance.

In a further test the target is T2, human A1 AR (Homo sapiens, UniProt P30542).
T2 construct: expressed in transfected cells; host or cells: CHO cells
T2 sequence (P30542 1-326): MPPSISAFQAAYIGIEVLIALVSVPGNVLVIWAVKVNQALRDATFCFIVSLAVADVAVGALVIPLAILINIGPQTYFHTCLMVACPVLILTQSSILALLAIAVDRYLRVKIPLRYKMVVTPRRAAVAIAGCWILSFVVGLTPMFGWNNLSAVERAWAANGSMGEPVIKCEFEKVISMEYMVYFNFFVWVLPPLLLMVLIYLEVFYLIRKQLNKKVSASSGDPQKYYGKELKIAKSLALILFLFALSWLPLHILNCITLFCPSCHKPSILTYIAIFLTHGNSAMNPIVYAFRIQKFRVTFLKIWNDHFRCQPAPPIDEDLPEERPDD
The test can be described thus: Radioligand binding, displacement of [3H]-CCPA at hA1 AR in CHO cells. The following applies: displacement of specific [3H]-CCPA binding, n = 3–6, mean ± SEM.

The target in the next test is T3, hA2B AR (Homo sapiens, UniProt P29275).
T3 construct: expressed in transfected cells; host or cells: CHO cells
T3 sequence (P29275 1-332): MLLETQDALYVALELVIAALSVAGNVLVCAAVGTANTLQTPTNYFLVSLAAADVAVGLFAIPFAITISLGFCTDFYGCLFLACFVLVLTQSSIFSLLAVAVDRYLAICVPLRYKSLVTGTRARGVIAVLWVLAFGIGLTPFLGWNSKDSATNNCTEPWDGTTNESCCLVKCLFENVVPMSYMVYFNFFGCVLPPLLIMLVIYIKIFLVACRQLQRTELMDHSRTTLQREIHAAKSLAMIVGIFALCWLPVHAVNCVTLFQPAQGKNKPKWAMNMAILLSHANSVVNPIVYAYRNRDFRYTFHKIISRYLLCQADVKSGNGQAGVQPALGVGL
The test can be described thus: Inhibition of NECA-stimulated adenylyl cyclase activity (cAMP) in CHO cells expressing hA2B AR. The following applies: mean ± SEM. Format: cell-based. As for the experimental part: Compounds 1–19 were evaluated for their binding affinity at hA1, hA2A, and hA3 ARs, stably transfected in Chinese hamster ovary (CHO) cells. […].
The binding affinity of the novel compounds was evaluated using radioligand competition experiments in CHO cells stably transfected with hA1 AR, hA2A AR, and hA3 AR subtypes. […]; The potency at hA2B AR, expressed on CHO cells, was determined by inhibition of NECA-stimulated adenylyl cyclase activity. […]
(§1) Binding data and concentration–response curves were fitted by a nonlinear regression with the Prism program (GraphPAD Prism 7 Software, San Diego, CA, USA). Each concentration was tested 3–5 times in duplicate and the Ki or IC50 (the concentration of antagonists that produces 50% inhibition of the agonist effect) values are given as the mean ± standard error (S.E.).

Another test concerns the target T4, human A2A AR (Homo sapiens, UniProt P29274).
T4 construct: expressed in transfected cells; host or cells: CHO cells
The test can be described thus: Radioligand binding, displacement of [3H]-NECA at hA2A AR in CHO cells.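 Further: competition binding on membranes from CHO cells stably transfected with human A2A receptor, binding curves fitted by nonlinear regression in GraphPad Prism.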

In another test the target is T5, hA2A AR (Homo sapiens, UniProt P29274).
T5 construct: expressed in transfected cells; host or cells: CHO cells
The test can be described thus: Inhibition of NECA-induced increase of cAMP in CHO cells expressing hA2A AR (GloSensor cAMP assay). Format: cell-based. The following applies: inhibition of NECA-stimulated adenylyl cyclase activity, mean ± standard error. As for the experimental part:
Compound 18 was also tested to evaluate its antagonist behavior at the hA1 AR by assessing its ability to counteract NECA-induced decrease of cAMP accumulation.
The intrinsic activity of understudy compounds was evaluated through the GloSensor cAMP assay, as described previously. Briefly, cells stably expressing the hA1, hA2A, and hA2B ARs and the biosensor were incubated for 2 h at rt in equilibration medium containing 3% v/v GloSensor cAMP reagent stock solution, 10% FBS, and 87% CO2 independent medium. Afterward, cells were dispensed in the wells of a 384-well plate and the reference agonist NECA or the compounds, at different concentrations, were tested. The antagonist profile of compounds was evaluated by assessing their ability to counteract NECA-induced increase (A2A and A2B ARs) or decrease (A1 AR) of cAMP accumulation. Responses were expressed as percentage of the maximal relative luminescence units (RLU).
as §1
A general note: Changes in cAMP serve as a functional read-out for many G protein-coupled receptors.

[1] abbreviates: displacement of specific [3H]-NECA binding, CHO cells, mean ± SEM, read-out: hA2A Ki.
Setting [2] is: hA2A AR, as listed in Table 3, read-out: pKi A2A (converted).

Read-outs that look alike come from different tables or passages of the source.

T4 sequence (P29274 whole entry): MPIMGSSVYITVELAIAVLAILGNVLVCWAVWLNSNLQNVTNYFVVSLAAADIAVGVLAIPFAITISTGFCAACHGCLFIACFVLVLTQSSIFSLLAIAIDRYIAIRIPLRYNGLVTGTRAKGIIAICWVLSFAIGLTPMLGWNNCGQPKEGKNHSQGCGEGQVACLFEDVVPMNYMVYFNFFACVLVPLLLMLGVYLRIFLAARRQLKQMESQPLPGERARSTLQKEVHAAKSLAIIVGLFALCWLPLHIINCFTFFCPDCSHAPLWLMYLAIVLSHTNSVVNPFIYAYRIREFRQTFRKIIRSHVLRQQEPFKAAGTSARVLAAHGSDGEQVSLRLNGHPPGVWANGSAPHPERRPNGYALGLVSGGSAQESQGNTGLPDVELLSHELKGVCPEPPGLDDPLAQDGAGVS
T5 sequence (P29274 whole entry): as above
Procedure for hA3 AR: (§2) CHO cells, stably expressing hARs, were grown adherently and maintained in Dulbecco’s modified Eagle’s medium (DMEM) with nutrient mixture F12 supplemented with 10% fetal bovine serum (FBS), penicillin (100 µg/mL), streptomycin (100 µg/mL), sodium pyruvate (1 mM), and geneticin (0.1 mg/mL).
(§3) Briefly, cells were homogenized in cold lysis buffer (5 mM Tris HCl, 2 mM EDTA, pH 7.4), centrifuged at low speed spin for 10 min, and subsequently, the supernatant was spun at 37,000 rpm. Membrane pellet was resuspended in the specific buffer and stored at −80 °C.
Procedure for human A1 AR: as §2, §3
Procedure for human A2A AR: as §2, §3

For `Nc1nc(-c2ccccc2)nc2sc(Cc3ccccc3)nc12` [compound 1, 2-Benzyl-5-phenylthiazolo[5,4-d]pyrimidin-7-amine], the Ki is 26.6 ± 6 nM at hA3 AR, 20 ± 4.3 nM at human A1 AR, 2.9 ± 0.04 nM at human A2A AR (setting [1]) and 2.82 nM on human A2A AR (setting [2]). In addition, the IC50 against hA2B AR was more than 30000 nM.
Turning to `N#Cc1cccc(-c2nc(N)c3nc(Cc4ccccc4)sc3n2)c1` [compound 2, 3-(7-Amino-2-benzylthiazolo[5,4-d]pyrimidin-5-yl)benzonitrile], the Ki on hA3 AR stood at 76 ± 0.9 nM; at human A1 AR it was 51.7 ± 11.7 nM; on human A2A AR (setting [1]), 4.6 ± 0.9 nM. The IC50 against hA2B AR was more than 30000 nM.
Take `Nc1nc(-c2cccc(O)c2)nc2sc(Cc3ccccc3)nc12` [compound 3, 3-(7-Amino-2-benzylthiazolo[5,4-d]pyrimidin-5-yl)phenol]: the values for the Ki at hA3 AR, at human A1 AR and on human A2A AR (setting [1]) were 104 ± 21.1 nM, 15.7 ± 3.4 nM and 7.3 ± 1 nM, respectively. On hA2B AR, this molecule gave a half-inhibitory concentration (IC50) of more than 30000 nM.
With `Nc1nc(-c2ccco2)nc2sc(Cc3ccccc3)nc12` [compound 4, 2-Benzyl-5-(furan-2-yl)thiazolo[5,4-d]pyrimidin-7-amine], the Ki is 65.4 ± 12 nM on hA3 AR, 15.5 ± 3.6 nM on human A1 AR, 1.1 ± 0.2 nM on human A2A AR (setting [1]) and 1.1 nM on human A2A AR (setting [2]). Moreover, half-maximal inhibition at hA2B AR (IC50) required 794 ± 196 nM.
For the molecule `Cc1ccc(-c2nc(N)c3nc(Cc4ccccc4)sc3n2)o1` [compound 5, 2-Benzyl-5-(5-methylfuran-2-yl)thiazolo[5,4-d]pyrimidin-7-amine], the Ki at hA3 AR is 18.8 ± 1.9 nM; on human A1 AR it was 6.8 ± 1.2 nM; at human A2A AR (setting [1]), 0.8 ± 0.04 nM; on human A2A AR (setting [2]) it was 0.794 nM. Besides, the values for the IC50 at hA2B AR and at hA2A AR were 1100 ± 228 nM and 88 ± 21 nM, respectively.
For `Nc1nc(-c2ccccc2)nc2sc(Cc3ccccc3Cl)nc12` [compound 6, 2-(2-Chlorobenzyl)-5-phenylthiazolo[5,4-d]pyrimidin-7-amine], the Ki was 143 ± 0.2 nM at hA3 AR, 2.8 ± 0.05 nM at human A1 AR, 0.4 ± 0.04 nM at human A2A AR (setting [1]) and 0.398 nM at human A2A AR (setting [2]). Besides, the IC50 at hA2B AR was more than 30000 nM.
In the case of `N#Cc1cccc(-c2nc(N)c3nc(Cc4ccccc4Cl)sc3n2)c1` [compound 7, 3-(7-Amino-2-(2-chlorobenzyl)thiazolo[5,4-d]pyrimidin-5-yl)benzonitrile], the Ki at hA3 AR is 295.1 ± 0.6 nM; on human A1 AR, 72.8 ± 15 nM; on human A2A AR (setting [1]) it was 6.3 ± 0.18 nM. In addition, the 50% inhibitory concentration (IC50) at hA2B AR worked out at 6785 ± 62 nM.
Turning to `Nc1nc(-c2ccco2)nc2sc(Cc3ccccc3Cl)nc12` [compound 8, 2-(2-Chlorobenzyl)-5-(furan-2-yl)thiazolo[5,4-d]pyrimidin-7-amine], the Ki is 4786 ± 5.1 nM at hA3 AR, 3.8 ± 0.6 nM at human A1 AR, 0.2 ± 0.03 nM on human A2A AR (setting [1]) and 0.2 nM on human A2A AR (setting [2]). The IC50 against hA2B AR was found to be 1890 ± 175 nM; at hA2A AR, 39 ± 9 nM.
`Cc1ccc(-c2nc(N)c3nc(Cc4ccccc4Cl)sc3n2)o1` [compound 9, 2-(2-Chlorobenzyl)-5-(5-methylfuran-2-yl)thiazolo[5,4-d]pyrimidin-7-amine]: the Ki on hA3 AR was 8.5 ± 1.6 nM; on human A1 AR, 0.5 ± 0.1 nM; at human A2A AR (setting [1]), 0.07 ± 0.006 nM; on human A2A AR (setting [2]), 0.0708 nM. In addition, the IC50 came out at 8850 ± 1450 nM against hA2B AR and 7.7 ± 1.3 nM on hA2A AR.
For the molecule `COc1ccccc1Cc1nc2c(N)nc(-c3ccccc3)nc2s1` [compound 10, 2-(2-Methoxybenzyl)-5-phenylthiazolo[5,4-d]pyrimidin-7-amine], the results for the Ki on hA3 AR, at human A1 AR and at human A2A AR (setting [1]) were 37.4 ± 1 nM, 4.5 ± 0.8 nM and 0.7 ± 0.1 nM, respectively. In addition, the results for the IC50 on hA2B AR and at hA2A AR were more than 30000 nM and 125 ± 33 nM, respectively.
Turning to `COc1ccccc1Cc1nc2c(N)nc(-c3cccc(C#N)c3)nc2s1` [compound 11, 3-(7-Amino-2-(2-methoxybenzyl)thiazolo[5,4-d]pyrimidin-5-yl)benzonitrile], the Ki turned out to be 54.2 ± 1.2 nM at hA3 AR, 28.4 ± 4 nM on human A1 AR and 2.4 ± 0.09 nM on human A2A AR (setting [1]). This molecule also yielded an IC50 on hA2B AR of 1540 ± 35 nM.
For `COc1ccccc1Cc1nc2c(N)nc(-c3cccc(O)c3)nc2s1` [compound 12, 3-(7-Amino-2-(2-methoxybenzyl)thiazolo[5,4-d]pyrimidin-5-yl)phenol], in that order: 79.6 ± 2.3 nM, 10.2 ± 0.3 nM, 1.9 ± 0.4 nM and 7420 ± 876 nM.
Regarding `COc1ccccc1Cc1nc2c(N)nc(-c3ccco3)nc2s1` [compound 13, 5-(Furan-2-yl)-2-(2-methoxybenzyl)thiazolo[5,4-d]pyrimidin-7-amine], the results for the Ki on hA3 AR, on human A1 AR and on human A2A AR (setting [1]) were 48.6 ± 2.4 nM, 2.4 ± 0.1 nM and 0.2 ± 0.03 nM, respectively. Also, the IC50 against hA2B AR turned out to be 1540 ± 35 nM; against hA2A AR it was 35 ± 8.5 nM.
As for `COc1ccccc1Cc1nc2c(N)nc(-c3ccc(C)o3)nc2s1` [compound 14, 2-(2-Methoxybenzyl)-5-(5-methylfuran-2-yl)thiazolo[5,4-d]pyrimidin-7-amine], the Ki at hA3 AR came to 18.2 ± 5 nM; at human A1 AR it was 11.5 ± 2.8 nM; at human A2A AR (setting [1]), 2 ± 0.6 nM. On hA2B AR, this molecule yielded a 50% inhibitory concentration (IC50) of 2420 ± 545 nM.
Regarding `Nc1nc(-c2ccccc2)nc2sc(Cc3ccccc3F)nc12` [compound 15, 2-(2-Fluorobenzyl)-5-phenylthiazolo[5,4-d]pyrimidin-7-amine], the Ki at hA3 AR is 72.1 ± 5.3 nM; on human A1 AR, 1.9 ± 0.05 nM; at human A2A AR (setting [1]) it was 1.8 ± 0.6 nM; on human A2A AR (setting [2]), 1.78 nM. At hA2B AR, this molecule came in with a half-maximal inhibitory concentration (IC50) of more than 30000 nM.
Consider `N#Cc1cccc(-c2nc(N)c3nc(Cc4ccccc4F)sc3n2)c1` [compound 16, 3-(7-Amino-2-(2-fluorobenzyl)thiazolo[5,4-d]pyrimidin-5-yl)benzonitrile], for which the Ki at hA3 AR was 95.5 ± 1.5 nM; on human A1 AR, 21.5 ± 5.1 nM; at human A2A AR (setting [1]), 1.4 ± 0.3 nM. For the same molecule, half-maximal inhibition on hA2B AR (IC50) required 1510 ± 121 nM.
On to `Nc1nc(-c2cccc(O)c2)nc2sc(Cc3ccccc3F)nc12` [compound 17, 3-(7-Amino-2-(2-fluorobenzyl)thiazolo[5,4-d]pyrimidin-5-yl)phenol], for which the Ki on hA3 AR worked out at 456 ± 15 nM; on human A1 AR, 0.5 ± 0.1 nM. The midpoint of inhibition at hA2B AR, the IC50, lay at 3240 ± 136 nM.
As for `Cc1ccc(-c2nc(N)c3nc(Cc4ccccc4F)sc3n2)o1` [compound 19, 2-(2-Fluorobenzyl)-5-(5-methylfuran-2-yl)thiazolo[5,4-d]pyrimidin-7-amine], the Ki was 50.2 ± 9.2 nM on hA3 AR, 5.7 ± 0.2 nM on human A1 AR, 0.26 ± 0.01 nM at human A2A AR (setting [1]) and 0.257 nM on human A2A AR (setting [2]). In addition, the figures for the concentration for half-maximal inhibition (IC50) on hA2B AR and on hA2A AR were 1690 ± 228 nM and 51 ± 12 nM, respectively.

Broadly, the IC50 is the midpoint of a concentration-inhibition curve. A high value points to weaker potency in that assay.
